Source: patent US10597388B2, “Pyridazinone herbicides” (FMC CORPORATION, priority 2014, dated 2020)
Read-outs that look alike come from different tables or passages of the source.

What was measured:
Experiment in all cases: Test A greenhouse herbicide test, pre- and postemergence
Assay type in all cases: in vivo
[1] = test system: pigweed (Amaranthus retroflexus); settings: Amaranthus retroflexus, 240 h; for pest or weed control at 125 g/ha: 125 g ai/ha; for pest or weed control at 500 g/ha: 500 g ai/ha; for pest or weed control at 500 g/ha / pest or weed control at 1000 g/ha: 0 to 100 scale; for pest or weed control at 1000 g/ha: 1000 g ai/ha
Procedure, shortened: (§1)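 Visual injury ratings, 0 (no effect) to 100 (complete control), versus untreated plants after roughly 10 d in a greenhouse. Compounds, formulated in a surfactant-containing non-phytotoxic solvent, were sprayed on loam–sand soil after sowing (pre) or on one- to two-leaf plants 2–10 cm tall (post).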

[2] = test system: wheat (Triticum aestivum); settings: Triticum aestivum, 240 h; for plant injury at 125 g/ha: 125 g ai/ha; for plant injury at 500 g/ha: 500 g ai/ha; for plant injury at 500 g/ha / plant injury at 1000 g/ha: 0 to 100 scale; for plant injury at 1000 g/ha: 1000 g ai/ha
Procedure, shortened: as §1

[3] = test system: corn (Zea mays); settings: Zea mays, 240 h; for Corn plant response rating (crop injury, 0 = no effect, 100 = complete kill) at 125 g/ha: visual rating after approx. 10 d, 0 to 100 scale (0 no effect, 100 complete control)
Procedure, shortened: as §1

[4] = test system: foxtail, giant (giant foxtail, Setaria faberii); settings: Setaria faberi, 240 h; for pest or weed control at 125 g/ha: 125 g ai/ha; for pest or weed control at 500 g/ha: 500 g ai/ha; for pest or weed control at 500 g/ha / pest or weed control at 1000 g/ha: 0 to 100 scale; for pest or weed control at 1000 g/ha: 1000 g ai/ha
Procedure, shortened: as §1

[5] = test system: barnyardgrass (Echinochloa crus-galli); settings: Echinochloa crus-galli, 240 h; for pest or weed control at 125 g/ha: 125 g ai/ha; for pest or weed control at 500 g/ha: 500 g ai/ha; for pest or weed control at 500 g/ha / pest or weed control at 1000 g/ha: 0 to 100 scale; for pest or weed control at 1000 g/ha: 1000 g ai/ha
Procedure, shortened: as §1

[6] = test system: ragweed (common ragweed, Ambrosia elatior); settings: Ambrosia artemisiifolia, 240 h; for pest or weed control at 125 g/ha: 125 g ai/ha; for pest or weed control at 500 g/ha: 500 g ai/ha, 0 to 100 scale
Procedure, shortened: as §1

[7] = test system: ryegrass, Italian (Italian ryegrass, Lolium multiflorum); settings: Lolium multiflorum, 240 h; for pest or weed control at 125 g/ha: 125 g ai/ha; for pest or weed control at 500 g/ha: 500 g ai/ha, 0 to 100 scale
Procedure, shortened: as §1

[8] = test system: kochia (Kochia scoparia); settings: Bassia scoparia, 240 h; for pest or weed control at 125 g/ha: 125 g ai/ha; for pest or weed control at 500 g/ha: 500 g ai/ha, 0 to 100 scale
Procedure, shortened: as §1

[9] = post-emergence, Postemergence, visual rating after approx. 10 d, 0 to 100 scale (0 no effect, 100 complete control), read-out: Plant response rating, Pigweed
[10] = post-emergence, Postemergence, 0 is no effect, 100 is complete control, read-out: Pigweed plant response rating
[11] = pre-emergence, Preemergence, 0 to 100 scale where 0 is no effect and 100 is complete control, read-out: Pigweed plant response rating
[12] = pre-emergence, Preemergence, 0 no effect, 100 complete control, read-out: Plant response rating, Pigweed
[13] = post-emergence, Postemergence, visual rating after approx. 10 d, 0 to 100 scale (0 no effect, 100 complete control), read-out: Plant response rating, Wheat
[14] = post-emergence, Postemergence, 0 is no effect, 100 is complete control, read-out: Wheat plant response rating
[15] = pre-emergence, Preemergence, 0 no effect, 100 complete control, read-out: Plant response rating, Wheat
[16] = post-emergence, Postemergence, 125 g ai/ha
[17] = post-emergence, Postemergence, 500 g ai/ha, 0 to 100 scale, 0 is no effect, 100 is complete control, read-out: Corn plant response rating
[18] = post-emergence, Postemergence, visual rating after approx. 10 d, 0 to 100 scale (0 no effect, 100 complete control), read-out: Plant response rating, Foxtail, Giant
[19] = post-emergence, Postemergence, 0 is no effect, 100 is complete control, read-out: Foxtail, Giant plant response rating
[20] = pre-emergence, Preemergence, 0 to 100 scale where 0 is no effect and 100 is complete control, read-out: Foxtail, Giant plant response rating
[21] = pre-emergence, Preemergence, 0 no effect, 100 complete control, read-out: Plant response rating, Foxtail, Giant
[22] = post-emergence, Postemergence, visual rating after approx. 10 d, 0 to 100 scale (0 no effect, 100 complete control), read-out: Plant response rating, Barnyardgrass
[23] = post-emergence, Postemergence, 0 is no effect, 100 is complete control, read-out: Barnyardgrass plant response rating
[24] = pre-emergence, Preemergence, 0 to 100 scale where 0 is no effect and 100 is complete control, read-out: Barnyardgrass plant response rating
[25] = pre-emergence, Preemergence, 0 no effect, 100 complete control, read-out: Plant response rating, Barnyardgrass

SMILES | pest or weed control at 125 g/ha [1, 9] [%] | pest or weed control at 500 g/ha [1, 10] [%] | pest or weed control at 125 g/ha [1, 11] [%] | pest or weed control at 500 g/ha [1, 12] [%] | plant injury at 125 g/ha [2, 13] [%] | plant injury at 500 g/ha [2, 14] [%] | Corn plant response rating (crop injury, 0 = no effect, 100 = complete kill) at 125 g/ha [3, 16] [%] | plant injury at 500 g/ha [3, 17] [%] | pest or weed control at 125 g/ha [4, 18] [%] | pest or weed control at 500 g/ha [4, 19] [%] | pest or weed control at 125 g/ha [4, 20] [%] | pest or weed control at 500 g/ha [4, 21] [%] | pest or weed control at 125 g/ha [5, 22] [%] | pest or weed control at 500 g/ha [5, 23] [%] | pest or weed control at 125 g/ha [5, 24] [%] | pest or weed control at 500 g/ha [5, 25] [%] | other results
Cc1nn(C)c(=O)c(-c2c(C)oc3cccc(C)c23)c1O [Compound 8, 4-(2,4-dimethyl-3-benzofuranyl)-5-hydroxy-2,6-dimethyl-3(2H)-pyridazinone] | 70 | 80 | 70 | 100 | 0 | 0 | 0 | 0 | 0 | 30 | 40 | 60 | 0 | 0 | 0 | 0 | plant injury at 125 g/ha ([2]; pre-emergence, Preemergence, 0 to 100 scale where 0 is no effect and 100 is complete control, read-out: Wheat plant response rating): 0%; plant injury at 500 g/ha [2, 15]: 0%; plant injury at 125 g/ha ([3]; pre-emergence, Preemergence, 125 g ai/ha, 0 to 100 scale where 0 is no effect and 100 is complete control, read-out: Corn plant response rating): 0%; Corn plant response rating (crop injury, 0 = no effect, 100 = complete kill) at 500 g/ha ([3]; pre-emergence, Preemergence, 500 g ai/ha, 0 to 100 scale, 0 no effect, 100 complete control): 0%
CCc1oc2ccc(C)cc2c1-c1c(O)c(C)nn(C)c1=O [Compound 10, 4-(2-ethyl-5-methyl-3-benzofuranyl)-5-hydroxy-2,6-dimethyl-3(2H)-pyridazinone] | – | – | – | – | – | – | – | – | – | – | – | – | – | – | – | – | pest or weed control at 1000 g/ha [1, 10]: 90%; pest or weed control at 1000 g/ha [1, 12]: 100%; plant injury at 1000 g/ha [2, 14]: 0%; plant injury at 1000 g/ha [2, 15]: 0%; plant injury at 1000 g/ha ([3]; post-emergence, Postemergence, 1000 g ai/ha, 0 to 100 scale, 0 is no effect, 100 is complete control, read-out: Corn plant response rating): 20%; Corn plant response rating (crop injury, 0 = no effect, 100 = complete kill) at 1000 g/ha ([3]; pre-emergence, Preemergence, 1000 g ai/ha, 0 to 100 scale, 0 no effect, 100 complete control): 10%; pest or weed control at 1000 g/ha [4, 19]: 80%; pest or weed control at 1000 g/ha [4, 21]: 100%; pest or weed control at 1000 g/ha [5, 23]: 90%; pest or weed control at 1000 g/ha [5, 25]: 100%
Cc1ccc2oc(C)c(-c3c(OC(=O)C(C)(C)C)c(C)nn(C)c3=O)c2c1 [Compound 17, 5-(2,5-dimethyl-3-benzofuranyl)-1,6-dihydro-1,3-dimethyl-6-oxo-4-pyridazinyl 2,2-dimethylpropanoate] | 0 | 0 | 0 | 0 | 0 | 0 | 0 | 0 | 0 | 0 | 0 | 0 | 0 | 0 | 0 | 0 | pest or weed control at 125 g/ha ([6]; post-emergence, Postemergence, visual rating after approx. 10 d, 0 to 100 scale (0 no effect, 100 complete control), read-out: Plant response rating, Ragweed): 0%; pest or weed control at 500 g/ha ([6]; post-emergence, Postemergence, 0 is no effect, 100 is complete control, read-out: Ragweed plant response rating): 0%; pest or weed control at 125 g/ha ([6]; pre-emergence, Preemergence, 0 to 100 scale where 0 is no effect and 100 is complete control, read-out: Ragweed plant response rating): 0%; pest or weed control at 500 g/ha ([6]; pre-emergence, Preemergence, 0 no effect, 100 complete control, read-out: Plant response rating, Ragweed): 10%; pest or weed control at 125 g/ha ([7]; post-emergence, Postemergence, visual rating after approx. 10 d, 0 to 100 scale (0 no effect, 100 complete control), read-out: Plant response rating, Ryegrass, Italian): 50%; pest or weed control at 500 g/ha ([7]; post-emergence, Postemergence, 0 is no effect, 100 is complete control, read-out: Ryegrass, Italian plant response rating): 60%; pest or weed control at 125 g/ha ([7]; pre-emergence, Preemergence, 0 to 100 scale where 0 is no effect and 100 is complete control, read-out: Ryegrass, Italian plant response rating): 10%; pest or weed control at 500 g/ha ([7]; pre-emergence, Preemergence, 0 no effect, 100 complete control, read-out: Plant response rating, Ryegrass, Italian): 40%; pest or weed control at 125 g/ha ([8]; post-emergence, Postemergence, visual rating after approx. 10 d, 0 to 100 scale (0 no effect, 100 complete control), read-out: Plant response rating, Kochia): 0%; pest or weed control at 500 g/ha ([8]; post-emergence, Postemergence, 0 is no effect, 100 is complete control, read-out: Kochia plant response rating): 0%; pest or weed control at 125 g/ha ([8]; pre-emergence, Preemergence, 0 to 100 scale where 0 is no effect and 100 is complete control, read-out: Kochia plant response rating): 0%; pest or weed control at 500 g/ha ([8]; pre-emergence, Preemergence, 0 no effect, 100 complete control, read-out: Plant response rating, Kochia): 0%
